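Five compound concentrations were applied to cells in 96-well plates for 48 hours; endpoints were derived by simple linear interpolation of the resulting dose-response curve. GI50: concentration for 50% inhibition of growth.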 Activity calls are given as the source filed them. Rule as the data show it: active = GI50 up to about 1.1 µM and inactive = higher.
Columns and labels:
Assay in all cases: inhibition of tumour cell growth, NCI panel, 48 h
[1] = test system: DMS-114
[2] = test system: HOP-18
[3] = test system: M19-MEL
[4] = test system: KM-20L2
[5] = test system: XF498
[6] = test system: RXF 631
[7] = test system: SNB-78
[8] = test system: LXFL 529
[9] = test system: DMS-273

| Compound | GI50 [1] | GI50 [2] | GI50 [3] | GI50 [4] | GI50 [5] | GI50 [6] | GI50 [7] | GI50 [8] | GI50 [9] |
| --- | --- | --- | --- | --- | --- | --- | --- | --- | --- |
| Nc1nc2ncn(CC(O)COC(=O)c3ccccc3)c2c(=O)[nH]1 (stereo not given) | > 100 µM (inactive) | > 100 µM (inactive) | > 100 µM (inactive) | > 100 µM (inactive) | > 100 µM (inactive) | > 100 µM (inactive) | 48.3 µM (inactive) | > 100 µM (inactive) | > 100 µM (inactive) |
| Cc1ccc(C)c(N2C(=O)C(=O)C(c3nc4ccccc4o3)C(=O)C2=O)c1 | 44 µM (inactive) | > 100 µM (inactive) | 59.2 µM (inactive) | > 100 µM (inactive) |  | > 100 µM (inactive) | > 100 µM (inactive) | 48.9 µM (inactive) | > 100 µM (inactive) |
| N#CC(C(=O)/C(=N/Nc1nc(S)nn1N)C(C#N)c1ccccc1)c1ccccc1 (stereo not given) | > 100 µM (inactive) | 0.403 µM (active) | > 100 µM (inactive) | > 100 µM (inactive) | > 100 µM (inactive) | > 100 µM (inactive) | > 100 µM (inactive) | > 100 µM (inactive) | > 100 µM (inactive) |
| COc1ccc2c(c1)c(=O)c1c(NCCCN(C)C)ccc3ncn2c31 | 10.6 µM (inactive) | 11.2 µM (inactive) | 9.08 µM (inactive) | 1.12 µM (inactive) | 5.35 µM (inactive) |  | 7.48 µM (inactive) | 3.41 µM (inactive) | 1.07 µM (active) |
| O=Cc1cc(O)c(O)c(O)c1-c1c(C=O)cc(O)c(O)c1O | 79.8 µM (inactive) | > 100 µM (inactive) | > 100 µM (inactive) | > 100 µM (inactive) |  |  | > 100 µM (inactive) | > 100 µM (inactive) | > 100 µM (inactive) |
| COC(=O)c1cc2c3ccccc3n(C(C)=O)c2cn1 | > 100 µM (inactive) | 44.9 µM (inactive) | > 100 µM (inactive) | > 100 µM (inactive) | 38.6 µM (inactive) | 77.6 µM (inactive) | > 100 µM (inactive) | 66.4 µM (inactive) | > 100 µM (inactive) |
| O=C(NC1=C(Cl)C(=O)c2ccccc2C1=O)C(=O)C(C(=O)c1ccc2ccccc2c1)C1OC(=O)c2ccccc21 (stereo not given) | 2.36 µM (inactive) |  | 0.309 µM (active) | 4.52 µM (inactive) |  |  | 3.76 µM (inactive) | 4.43 µM (inactive) |  |
| COC(=O)CCC1CCc2c(OC)ccc(O)c2C1=O (stereo not given) |  |  | > 100 µM (inactive) |  |  | > 100 µM (inactive) | > 100 µM (inactive) | > 100 µM (inactive) | > 100 µM (inactive) |
| COc1cccc(NC(=O)C(C)(C)C)c1SSc1c(NC(=O)C(C)(C)C)cccc1OC | > 10 µM (inactive) | > 69.7 µM (inactive) | 35.2 µM (inactive) | 98.4 µM (inactive) | 15.2 µM (inactive) |  | 22.3 µM (inactive) | 15.8 µM (inactive) | 96.8 µM (inactive) |
| Cc1cccc(C2SCc3nc4ccccc4n32)c1 (stereo not given) | 10.9 µM (inactive) | < 0.01 µM (active) | 24 µM (inactive) |  |  |  | 27.5 µM (inactive) | 25.2 µM (inactive) |  |
| CC1=CC(=O)CCC2(C)C1CC[C@@H]2OC=O (stereo not given in full) | > 100 µM (inactive) | > 100 µM (inactive) | > 100 µM (inactive) | 82.2 µM (inactive) | > 100 µM (inactive) | > 100 µM (inactive) | > 100 µM (inactive) | > 100 µM (inactive) | > 100 µM (inactive) |
| CC1OC(OC2C(OC(=O)[C@]34CCC(C)(C)CC3C3=CCC5[C@@]6(C)C[C@H](O)[C@H](OC7OC(CO)C(O)C(O)C7N)[C@@](C)(C(=O)O)C6CC[C@@]5(C)C3(C)CC4)OCC(O)C2O)C(O)C(O)C1OC1OCC(O)C(O)C1O (stereo not given in full) | > 100 µM (inactive) | > 100 µM (inactive) | > 100 µM (inactive) | > 100 µM (inactive) |  |  | > 100 µM (inactive) |  | > 100 µM (inactive) |
| COc1ccc([C@H]2[C@@H]3CCc4ccccc4C3=NN2C(N)=S)cc1OC | 28.8 µM (inactive) | > 100 µM (inactive) | 34.3 µM (inactive) | 57.7 µM (inactive) | > 100 µM (inactive) |  | > 100 µM (inactive) | 24.2 µM (inactive) |  |
